For assay [1], the system named is NLRP3 inflammasome pathway. Description: NLRP3 inflammasome pathway activation assay, MSU stimulation, IL-1β HTRF. The format is cell-based. As to conditions: Homo sapiens, 3 h, read-out: IC50 Human monocyte-like cells MSU. The method in brief:
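Human monocyte-like cells differentiated overnight with 10 ng/mL PMA, primed 3 h with 10 ng/mL LPS, given compound ([…]) 30 min before 3 h stimulation with Nigericin 3.75 μM or MSU 200 μg/mL. Supernatant IL-1β quantified by HTRF; IC50 at 50% inhibition.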
A general note: Time-resolved FRET reads energy transfer from a long-lived donor to a nearby acceptor.

Assay [2] concerns NLRP3 inflammasome pathway. Put plainly: NLRP3 inflammasome pathway activation assay, Nigericin stimulation, IL-1β HTRF. The format is cell-based. As to conditions: Homo sapiens, 3 h, Table 7; PMA-differentiated, LPS-primed cells; Nigericin 3.75 μM for 3 h; IL-1β release; read-out: IC50 Human monocyte-like cells Nigericin. As to the method: The following assays were used to determine the inhibitory activity of test compounds on the NLRP3 inflammasome pathway using common stimuli Nigericin (Invivogen) or monosodium urate crystals (MSU) (Invivogen).
Human monocyte-like cells were cultured in RPMI-1640 Glutamax medium supplemented with 10% heat inactivated FBS (Fetal Bovine Serum) and 50 U/mL penicillin-streptomycin (Life Technologies).
Human monocyte-like cells were seeded at 25000 per well in a 384-well plate and were differentiated overnight into macrophages with 10 ng/mL PMA (Phorbol Myristate Acetate). The following day, medium containing 10 ng/mL LPS (Lipopolysaccharide) was added. After 3 hours of LPS priming, concentrations of test compound in the range from […] were added 30 min prior to NLRP3 inflammasome pathway stimulation with Nigericin 3.75 μM or MSU 200 μg/mL for 3 h.
For IL-1p quantification, supernatants were analyzed using HTRF kit according to the manufacturer's instructions (Cisbio 62HIL1BPEH). Briefly, in a 384-well ProxiPlate™ microplate, 8 μl of sample was mixed, with 5 μl of Anti-IL1β Cryptate antibody (40×) and Anti-IL1β XL antibody (40×). Then, incubated overnight at RT. Reading was done using an EnVision Reader (PerkinElmer).
IC50 (concentration corresponding to 50% inhibition) were determined using GraphPad Prism 9.

Setting [3] is: Table 7, PMA-differentiated, LPS-primed cells, MSU 200 μg/mL for 3 h, IL-1β release.
The mark [4] stands for this setting: Table 8 (formula II′/II vs formula III), MSU 200 μg/mL for 3 h, IL-1β release.

As usually defined, the IC50 is the midpoint of a concentration-inhibition curve. With `CCn1c(-c2ccc(C(F)(F)F)cc2O)nc2nc(NC3CCN(C)C3)ccc21` (single isomer, unassigned) [Example 9, 2-(1-ethyl-5-((1-methylpyrrolidin-3-yl)amino)-1H-imidazo[4,5-b]pyridin-2-yl)-5-(trifluoromethyl)phenol], the IC50 is < 0.1 µM in assay [1] (setting [3]) and 0.1 to 1 µM in assay [2].

`Cc1cc(C(F)(F)F)cc(O)c1-c1nc2nc(N[C@H]3CCCC[C@@H]3O)ccc2n1C` (single isomer, unassigned) [Example 20, 2-(5-((2-hydroxycyclohexyl)amino)-1-methyl-1H-imidazo[4,5-b]pyridin-2-yl)-3-methyl-5-(trifluoromethyl)phenol]: the IC50 in assay [1] (setting [3]) is 0.1 to 1 µM; in assay [2] it was > 1 µM.

As to `COc1ccc2c(n1)nc(-c1c(C)cc(C(F)(F)F)cc1O)n2C` [Example 23], the IC50 in assay [1] (setting [3]) is < 0.1 µM; in assay [2] it was 0.1 to 1 µM.

Take `COc1ccc2c(n1)nc(-c1ccc(C(F)(F)F)cc1O)n2C` [Example 24, 2-(5-methoxy-1-methyl-1H-imidazo[4,5-b]pyridin-2-yl)-5-(trifluoromethyl)phenol]: the IC50 in assay [1] (setting [3]) was 0.1 to 1 µM; in assay [2] it was < 0.1 µM.

In the case of `CN1CCC[C@@H](Oc2ccc3c(n2)nc(-c2ccc(C(F)(F)F)cc2O)n3C)C1` [Example 25, (R)-2-(1-methyl-5-((1-methylpiperidin-3-yl)oxy)-1H-imidazo[4,5-b]pyridin-2-yl)-5-(trifluoromethyl)phenol], the results for the IC50 in assay [1] (setting [3]) and in assay [2] were < 0.1 µM and 0.1 to 1 µM, respectively.

`Cc1cc(C(F)(F)F)cc(O)c1-c1nc2nc(O[C@@H]3CCCN(C)C3)ccc2n1C` [Example 26, (R)-3-methyl-2-(1-methyl-5-((1-methylpiperidin-3-yl)oxy)-1H-imidazo[4,5-b]pyridin-2-yl)-5-(trifluoromethyl)phenol]: the half-inhibitory concentration (IC50) in assay [1] (setting [3]) was < 0.1 µM; in assay [2], 0.1 to 1 µM.

With `COc1ccc2c(n1)nc(-c1c(C)cc(Cl)cc1O)n2C` [Example 29, 5-chloro-2-(5-methoxy-1-methyl-1H-imidazo[4,5-b]pyridin-2-yl)-3-methylphenol], the IC50 in assay [1] (setting [3]) was < 0.1 µM; in assay [2] it was 0.1 to 1 µM.

Turning to `Cc1cc(C(F)(F)F)cc(O)c1-c1nc2nc(N(C)C)c(CO)cc2n1C` [Example 67, 2-[5-(dimethylamino)-6-(hydroxymethyl)-1-methyl-imidazo[4,5-b]pyridin-2-yl]-3-methyl-5-(trifluoromethyl)phenol], in assay [1] (setting [3]), the IC50 is < 0.1 µM.

Turning to `Cc1cc(C(F)(F)F)cc(O)c1-c1nc2nc(N3CCN(C)CC3)cnc2n1C` [Example 68, 3-methyl-2-(1-methyl-5-(4-methylpiperazin-1-yl)-1H-imidazo[4,5-b]pyrazin-2-yl)-5-(trifluoromethyl)phenol], in assay [1] (setting [3]), the IC50 lay in the range of 0.1 to 1 µM.

`Cc1cc(Cl)cc(O)c1-c1nc2nc(N3CCN(C)CC3)cnc2n1C` [Example 69, 5-chloro-3-methyl-2-(1-methyl-5-(4-methylpiperazin-1-yl)-1H-imidazo[4,5-b]pyrazin-2-yl)phenol]: the IC50 in assay [1] (setting [3]) fell in the range of 0.1 to 1 µM.

As for `COc1nc2nc(-c3c(C)cc(Cl)cc3O)n(C)c2cc1CO` [Example 70, 5-chloro-2-[6-(hydroxymethyl)-5-methoxy-1-methyl-imidazo[4,5-b]pyridin-2-yl]-3-methyl-Phenol], the IC50 in assay [1] (setting [3]) is < 0.1 µM.

As for `Cc1cc(C(F)(F)F)cc(O)c1-c1nc2nc(N3CC(N(C)C)C3)cnc2n1C` [Example 71, 2-(5-(3-(dimethylamino)azetidin-1-yl)-1-methyl-1H-imidazo[4,5-b]pyrazin-2-yl)-3-methyl-5-(trifluoromethyl)phenol], the IC50 in assay [1] (setting [3]) lay within 0.1 to 1 µM.

As to `COc1nc2c(nc1N[C@@H]1CCN(C)C1)nc(-c1c(C)cc(C(F)(F)F)cc1O)n2C` [Example 72, (R)-2-(6-methoxy-1-methyl-5-((1-methylpyrrolidin-3-yl)amino)-1H-imidazo[4,5-b]pyrazin-2-yl)-3-methyl-5-(trifluoromethyl)phenol], the IC50 in assay [1] (setting [3]) is < 0.1 µM.

As to `Cc1cc(Cl)cc(O)c1-c1nc2nc(N3CCOCC3)cnc2[nH]1` [Example 73, 5-chloro-3-methyl-2-(5-morpholino-1H-imidazo[4,5-b]pyrazin-2-yl)phenol], the half-maximal inhibitory concentration (IC50) in assay [1] (setting [3]) lay within 0.1 to 1 µM.

As for `Cc1cc(F)cc(O)c1-c1nc2nc(N(C)[C@@H]3CCN(C)C3)cnc2n1C` [Example 74, (R)-5-fluoro-3-methyl-2-(1-methyl-5-(methyl(1-methylpyrrolidin-3-yl)amino)-1H-imidazo[4,5-b]pyrazin-2-yl)phenol], in assay [1] (setting [3]), the IC50 is < 0.1 µM.

Turning to `Cc1cc(C(F)(F)F)cc(O)c1-c1nc2nc(N3CCC(C)(O)CC3)cnc2n1C` [Example 75, 1-[2-[2-hydroxy-6-methyl-4-(trifluoromethyl)phenyl]-1-methyl-imidazo[4,5-b]pyrazin-5-yl]-4-methyl-piperidin-4-ol], in assay [1], the IC50 lay within 0.1 to 1 µM.

In the case of `Cc1cc(Cl)cc(O)c1-c1nc2nc(N3CCC(O)CC3)cnc2n1C` [Example 78, 1-[2-(4-chloro-2-hydroxy-6-methyl-phenyl)-1-methyl-imidazo[4,5-b]pyrazine-5-yl]piperidin-4-ol], the IC50 in assay [1] (setting [3]) was < 0.1 µM.

`Cc1cc(C(F)(F)F)cc(O)c1-c1nc2nc(N3CCOCC3)ccc2n1C` [Example 79, 3-methyl-2-(1-methyl-5-morpholino-imidazo[4,5-b]pyridin-2-yl)-5-(trifluoromethyl)phenol]: the IC50 in assay [1] (setting [3]) was < 0.1 µM.

Take `Cc1cc(Cl)cc(O)c1-c1nc2nc(N3CCC(C)(O)CC3)cnc2n1C` [Example 80, 1-[2-(4-chloro-2-hydroxy-6-methyl-phenyl)-1-methyl-imidazo[4,5-b]pyrazin-5-yl]-4-methyl-piperidin-4-ol]: the IC50 in assay [1] (setting [3]) was < 0.1 µM.

With `Cc1cc(Cl)cc(O)c1-c1nc2nc(N(C)[C@@H]3CCN(C)C3)cnc2n1C` [Example 81, 5-chloro-3-methyl-2-[1-methyl-5-[methyl-[(3R)-1-methylpyrrolidin-3-yl]amino]imidazo-[4,5-b]pyrazin-2-yl]phenol], the IC50 in assay [1] (setting [3]) is < 0.1 µM.

`Cn1c(NCCO)nc2nc(-c3ccc(C(F)(F)F)cc3O)ccc21` [Example 82, 2-(2-((2-hydroxyethyl)amino)-1-methyl-1H-imidazo[4,5-b]pyridin-5-yl)-5-(trifluoro-methyl)phenol]: the IC50 in assay [1] (setting [4]) is > 1.5 µM.

Take `CN1CCC[C@@H](Nc2nc3nc(-c4ccc(C(F)(F)F)cc4O)ccc3n2C)C1` [Example 83, (R)-2-(1-methyl-2-((1-methylpiperidin-3-yl)amino)-1H-imidazo[4,5-b]pyridin-5-yl)-5-(trifluoromethyl)phenol]: the IC50 in assay [1] (setting [4]) is > 1.5 µM.

For `Cc1cc(C(F)(F)F)cc(O)c1-c1nc2nc(N3CC(C)(O)C3)cnc2n1C` [Example 84, 1-(2-(2-hydroxy-6-methyl-4-(trifluoromethyl)phenyl)-1-methyl-1H-imidazo[4,5-b]pyrazin-5-yl)-3-methylazetidin-3-ol], the IC50 in assay [1] (setting [3]) is 0.1 to 1 µM.

Regarding `CN1CC[C@@H](Oc2cnc3c(n2)nc(-c2c(O)cc(Cl)cc2F)n3C)C1` [Example 87, 5-chloro-3-fluoro-2-[1-methyl-5-[(3R)-1-methylpyrrolidin-3-yl]oxy-imidazo[4,5-b]pyrazin-2-yl]phenol], in assay [1] (setting [3]), the IC50 was < 0.1 µM.

As to `Cc1cc(Cl)cc(O)c1-c1nc2nc(C(F)(F)F)ccc2n1C` [Examples 50], the half-inhibitory concentration (IC50) in assay [1] (setting [3]) is 0.1 to 1 µM.

The values above are taken from US20240101563A1, “NOVEL COMPOUNDS” (AC Immune SA, priority 2022, published 2024).
